Measurements as given in patent publication US9840478B2 (MERCK SHARP & DOHME CORP., priority 2013, dated 2017).

System: HIV-1 (H9IIIB strain)
Assay: Cell-based HIV infection assay using a reporter (Cell-Based), MT4-GFP cells
Conditions: Human immunodeficiency virus 1, MT4-GFP cells infected with HIV-1 H9IIIB; 50% normal human serum; mean of at least two independent experiments; read-out: Cell-based IP
How it was run: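 IC50 from 4-parameter dose-response of % viral growth inhibition, using the 48 h/24 h infected-cell ratio scaled between DMSO and a protease/integrase/NNRTI triple-drug control. Assay used MT4 cells with HIV-LTR-GFP reporter, pre-infected 24 h with HIV-1 H9IIIB, in 50% normal human serum.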

Structure (SMILES) | IC50
CC(C)[C@H](c1ccc(Cl)cc1)[C@H](N)C(=O)Nc1cccc(F)c1CC[C@H]1CNC[C@H](C)N1S(=O)(=O)c1ccccc1Cl [Example 271, (βR)-4-chloro-N-[2-(2-{(2S,6S)-1-[(2-chlorophenyl)sulfonyl]-6-methylpiperazin-2-yl}ethyl)-3-fluorophenyl]-β-(1-methylethyl)-L-phenylalaninamide] | 1200 nM
COC(=O)N[C@H](C(=O)Nc1cncc(F)c1CC[C@H]1CNC[C@H](C)N1S(=O)(=O)c1ccccc1Cl)[C@@H](c1ccc(F)cc1)c1cc(F)cc(F)c1 [Example 272, (βS)-N-[4-(2-{(2S,6S)-1-[(2-chlorophenyl)sulfonyl]-6-methylpiperazin-2-yl}ethyl)-5-fluoropyridin-3-yl]-β-(3,5-difluorophenyl)-4-fluoro-Nα-(methoxycarbonyl)-L-phenylalaninamide] | 49 nM
C[C@H]1CNC[C@H](CCc2c(F)cncc2NC(=O)[C@@H](N)[C@@H](c2ccc(Cl)cc2)C2CCOCC2)N1S(=O)(=O)c1ccc(Cl)cc1 [Example 273, (βR)-4-chloro-N-[4-(2-{(2S,6S)-1-[(4-chlorophenyl)sulfonyl]-6-methylpiperazin-2-yl}ethyl)-5-fluoropyridin-3-yl]-β-(tetrahydro-2H-pyran-4-yl)-L-phenylalaninamide] | 11 nM
COC(=O)N[C@H](C(=O)Nc1cncc(F)c1CC[C@H]1CNC[C@H](C)N1S(=O)(=O)c1ccccc1)[C@@H](c1ccc(Cl)cc1)C1CCOCC1 [Example 274, (βR)-4-chloro-N-(5-fluoro-4-{2-[(2S,6S)-6-methyl-1-(phenylsulfonyl)piperazin-2-yl]ethyl}pyridin-3-yl)-Nα-(methoxycarbonyl)-β-(tetrahydro-2H-pyran-4-yl)-L-phenylalaninamide] | 22 nM
COC(=O)N[C@H](C(=O)Nc1cccc(F)c1CC[C@H]1CNC[C@@H](C)N1S(=O)(=O)c1ccccc1)C1(c2ccc(Cl)cc2)CCOCC1 [Example 275, methyl {(1S)-1-[4-(4-chlorophenyl)tetrahydro-2H-pyran-4-yl]-2-[(3-fluoro-2-{2-[(2S,6R)-6-methyl-1-(phenylsulfonyl)piperazin-2-yl]ethyl}phenyl)amino]-2-oxoethyl}carbamate] | 19 nM
COC(=O)N[C@H](C(=O)Nc1cccc(F)c1CC[C@H]1CNC[C@H](C)N1S(=O)(=O)c1ccccc1)C1(c2ccc(Cl)cc2)CCOCC1 [Example 276, methyl {(1S)-1-[4-(4-chlorophenyl)tetrahydro-2H-pyran-4-yl]-2-[(3-fluoro-2-{2-[(2S,6S)-6-methyl-1-(phenylsulfonyl)piperazin-2-yl]ethyl}phenyl)amino]-2-oxoethyl}carbamate] | 9.1 nM
C[C@H]1CNC[C@H](CCc2c(F)cncc2NC(=O)[C@@H](N)[C@@H](c2ccc(Cl)cc2)C2CCOCC2)N1S(=O)(=O)c1ccccc1 [Example 277, (βR)-4-chloro-N-(5-fluoro-4-{2-[(2S,6S)-6-methyl-1-(phenylsulfonyl)piperazin-2-yl]ethyl}pyridin-3-yl)-β-(tetrahydro-2H-pyran-4-yl)-L-phenylalaninamide] | 15 nM
C[C@H]1CNC[C@H](CCc2c(F)cccc2NC(=O)[C@@H](N)C2(c3cc(F)cc(F)c3)CCOCC2)N1S(=O)(=O)c1ccccc1 [Example 278, (2S)-2-amino-2-[4-(3,5-difluorophenyl)tetrahydro-hydro-2H-pyran-4-yl]-N-(3-fluoro-2-{2-[(2S,6S)-6-methyl-1-(phenylsulfonyl)piperazin-2-yl]ethyl}phenyl) ethanamide] | 140 nM
COC(=O)N[C@H](C(=O)Nc1cncc(F)c1CC[C@H]1CNC[C@@H](C)N1S(=O)(=O)c1ccccc1)[C@@H](c1ccc(Cl)cc1)C1CCOCC1 [Example 279, (βR)-4-chloro-N-(5-fluoro-4-{2-[(2S,6R)-6-methyl-1-(phenylsulfonyl)piperazin-2-yl]ethyl}pyridin-3-yl)-Nα-(methoxycarbonyl)-β-(tetrahydro-2H-pyran-4-yl)-L-phenylalaninamide] | 16 nM
C[C@@H]1CNC[C@H](CCc2c(F)cncc2NC(=O)[C@@H](N)[C@@H](c2ccc(Cl)cc2)C2CCOCC2)N1S(=O)(=O)c1ccccc1 [Example 280, (βR)-4-chloro-N-(5-fluoro-4-{2-[(2S,6R)-6-methyl-1-(phenylsulfonyl)piperazin-2-yl]ethyl}pyridin-3-yl)-β-(tetrahydro-2H-pyran-4-yl)-L-phenylalaninamide] | 16 nM
COC(=O)N[C@H](C(=O)Nc1cncc(F)c1CC[C@H]1CNC[C@@H](C)N1S(=O)(=O)c1ccc(Cl)cc1)[C@@H](c1ccc(Cl)cc1)C1CCOCC1 [Example 281, (βR)-4-chloro-N-[4-(2-{(2S,6R)-1-[(4-chlorophenyl)sulfonyl]-6-methylpiperazin-2-yl}ethyl)-5-fluoropyridin-3-yl]-Nα-(methoxycarbonyl)-β-(tetrahydro-2H-pyran-4-yl)-L-phenylalaninamide] | 13 nM
COC(=O)N[C@H](C(=O)Nc1cncc(F)c1CC[C@H]1CNC[C@H](C)N1S(=O)(=O)c1ccc(Cl)cc1)[C@@H](c1ccc(Cl)cc1)C1CCOCC1 [Example 282, (βR)-4-chloro-N-[4-(2-{(2S,6S)-1-[(4-chlorophenyl)sulfonyl]-6-methylpiperazin-2-yl}ethyl)-5-fluoropyridin-3-yl]-Nα-(methoxycarbonyl)-β-(tetrahydro-2H-pyran-4-yl)-L-phenylalaninamide] | 11 nM
COC(=O)N[C@H](C(=O)Nc1cccc(F)c1CC[C@H]1CNC[C@@H](C)N1S(=O)(=O)c1ccccc1)[C@@H](c1cc(F)cc(F)c1)C1CCOCC1 [Example 283, (βR)-3,5-difluoro-N-(3-fluoro-2-{2-[(2S,6R)-6-methyl-1-(phenylsulfonyl)piperazin-2-yl]ethyl}phenyl)-Nα-(methoxycarbonyl)-β-(tetrahydro-2H-pyran-4-yl)-L-phenylalaninamide] | 14 nM
C[C@@H]1CNC[C@H](CCc2c(F)cccc2NC(=O)[C@@H](N)[C@@H](c2cc(F)cc(F)c2)C2CCOCC2)N1S(=O)(=O)c1ccccc1 [Example 284, (βR)-3,5-difluoro-N-(3-fluoro-2-{2-[(2S,6R)-6-methyl-1-(phenylsulfonyl)piperazin-2-yl]ethyl}phenyl)-β-(tetrahydro-2H-pyran-4-yl)-L-phenylalaninamide] | 40 nM
COC(=O)N[C@H](C(=O)Nc1cccc(F)c1CC[C@H]1CNC[C@@H](C)N1S(=O)(=O)c1ccccc1)C1(c2cc(F)cc(F)c2)CCOCC1 [Example 285, methyl {(1S)-1-[4-{3,5-difluorophenyl)tetrahydro-2H-pyran-4-yl]-2-[(3-fluoro-2-{2-[(2S,6R)-6-methyl-1-(phenylsulfonyl)piperazin-2-yl]ethyl}phenyl)amino]-2-oxoethyl}carbamate] | 29 nM
COC(=O)N[C@H](C(=O)Nc1cccc(F)c1CC[C@H]1CNC[C@H](C)N1S(=O)(=O)c1ccccc1)C1(c2cc(F)cc(F)c2)CCOCC1 [Example 286, methyl {(1S)-1-[4-(3,5-difluorophenyl)tetrahydro-2H-pyran-4-yl]-2-[(3-fluoro-2-{2-[(2S,6S)-6-methyl-1-(phenylsulfonyl)piperazin-2-yl]ethyl}phenyl)amino]-2-oxoethyl}carbamate] | 33 nM
C[C@@H]1CNC[C@H](CCc2c(F)cccc2NC(=O)[C@@H](N)C2(c3cc(F)cc(F)c3)CCOCC2)N1S(=O)(=O)c1ccccc1 [Example 287, (2S)-2-amino-2-[4-(3,5-difluorophenyl)tetrahydro-2H-pyran-4-yl]-N-(3-fluoro-2-{2-[(2S,6R)-6-methyl-1-(phenylsulfonyl)piperazin-2-yl]ethyl}phenyl)ethanamide] | 91 nM
C[C@@H]1CNC[C@H](CCc2c(F)cccc2NC(=O)[C@@H](N)[C@@H](c2ccc(F)c(F)c2)C2CCOCC2)N1S(=O)(=O)c1ccccc1 [Example 288, (βR)-3,4-difluoro-N-(3-fluoro-2-{2-[(2S,6R)-6-methyl-1-(phenylsulfonyl)piperazin-2-yl]ethyl}phenyl)-β-(tetrahydro-2H-pyran-4-yl)-L-phenylalaninamide] | 23 nM
C[C@H]1CNC[C@H](CCc2c(F)cccc2NC(=O)[C@@H](N)[C@@H](c2ccc(F)c(F)c2)C2CCOCC2)N1S(=O)(=O)c1ccccc1 [Example 289, (βR)-3,4-difluoro-N-(3-fluoro-2-{2-[(2S,6S)-6-methyl-1-(phenylsulfonyl)piperazin-2-yl]ethyl}phenyl)-β-(tetrahydro-2H-pyran-4-yl)-L-phenylalaninamide] | 23 nM
COC(=O)N[C@H](C(=O)Nc1cccc(F)c1CC[C@H]1CNC[C@@H](C)N1S(=O)(=O)c1ccccc1)C1(c2ccc(F)c(F)c2)CCOCC1 [Example 290, methyl {(1S)-1-[4-(3,4-difluorophenyl)tetrahydro-2H-pyran-4-yl]-2-[(3-fluoro-2-{2-[(2S,6R)-6-methyl-1-(phenylsulfonyl)piperazin-2-yl]ethyl}phenyl)amino]-2-oxoethyl}carbamate] | 15 nM
C[C@@H]1CNC[C@H](CCc2c(F)cccc2NC(=O)[C@@H](N)C2(c3ccc(F)c(F)c3)CCOCC2)N1S(=O)(=O)c1ccccc1 [Example 291, (2S)-2-amino-2-[4-(3,4-difluorophenyl)tetrahydro-2H-pyran-4-yl]-N-(3-fluoro-2-{2-[(2S,6R)-6-methyl-1-(phenylsulfonyl)piperazin-2-yl]ethyl}phenyl)ethanamide] | 100 nM
C[C@H]1CNC[C@H](CCc2c(F)cccc2NC(=O)[C@@H](N)C2(c3ccc(F)c(F)c3)CCOCC2)N1S(=O)(=O)c1ccccc1 [Example 292, (2S)-2-amino-2-[4-(3,4-difluorophenyl)tetrahydro-2H-pyran-4-yl]-N-(3-fluoro-2-{2-[(2S,6S)-6-methyl-1-(phenylsulfonyl)piperazin-2-yl]ethyl}phenyl)ethanamide] | 130 nM
